Assay results as given in US20120165319A1, “INHIBITORS OF INTERLEUKIN-1 BETA CONVERTING ENZYME” (VERTEX PHARMACEUTICALS INCORPORATED, priority 1995, published 2012).
Counter-ions that a name gives are not always drawn. One block for each compound: values may come before it.

Key:
ICE = molecular target: T1, ICE (Homo sapiens, UniProt P29466); assay: Enzyme assay with UV-visible substrate (visible ICE assay, Succinyl-Tyr-Val-Ala-Asp-pNitroanilide); type: biochemical
T1 sequence (P29466 120-297 limits assumed): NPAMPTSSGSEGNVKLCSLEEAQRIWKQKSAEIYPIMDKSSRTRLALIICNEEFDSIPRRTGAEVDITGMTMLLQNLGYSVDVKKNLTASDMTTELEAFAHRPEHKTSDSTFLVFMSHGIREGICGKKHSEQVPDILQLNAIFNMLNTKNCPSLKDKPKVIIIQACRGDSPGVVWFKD
T1 sequence (P29466 317-404 limits assumed): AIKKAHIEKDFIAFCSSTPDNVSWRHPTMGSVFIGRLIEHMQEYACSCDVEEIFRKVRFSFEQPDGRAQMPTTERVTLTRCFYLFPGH
Method: 1. Enzyme Assay with Uv-Visible Substrate
This assay is run using an Succinyl-Tyr-Val-Ala-Asp-pNitroanilide substrate. Synthesis of analogous substrates is described by L. A. Reiter (Int. J. Peptide Protein Res. 12, 87-96 (1994)). The assay mixture contains:
The visible ICE assay is run in a 96-well microtiter plate. Buffer, ICE and DMSO (if inhibitor is present) are added to the wells in the order listed. The components are left to incubate at room temperature for 15 minutes starting at the time that all components are present in all wells. The microtiter plate reader is set to incubate at 37° C. After the 15 minute incubation, substrate is added directly to the wells and the reaction is monitored by following the release of the chromophore (pNA) at 405-603 nm at 37° C. for 20 minutes. A linear fit of the data is performed and the rate is calculated in mOD/min. DMSO is only present during experiments involving inhibitors, buffer is used to make up the volume to 100 μl in the other experiments.
For determination of enzyme inhibition constants (Ki) or the mode of inhibition (competitive, uncompetitive or noncompetitive), the rate data determined in the enzyme assays at varying inhibitor concentrations are computer-fit to standard enzyme kinetic equations (see I. H. Segel, Enzyme Kinetics, Wiley-Interscience, 1975).

[1] = system: IL-1β, human peripheral blood mononuclear cells (PBMC); assay: PBMC cell assay: IL-1β assay with human PBMC or enriched adherent mononuclear cells, LPS-stimulated; type: cell-based
From the text: IL-1β Assay with a Mixed Population of Human Peripheral Blood Mononuclear Cells (PBMC) or Enriched Adherent Mononuclear Cells
Processing of pre-IL-1β by ICE can be measured in cell culture using a variety of cell sources. Human PBMC obtained from healthy donors provides a mixed population of lymphocyte subtypes and mononuclear cells that produce a spectrum of interleukins and cytokines in response to many classes of physiological stimulators. Adherent mononuclear cells from PBMC provides an enriched source of normal monocytes for selective studies of cytokine production by activated cells.
An initial dilution series of test compound in DMSO or ethanol is prepared, with a subsequent dilution into RPMI-10% FBS media (containing 2 mM L-glutamine, 10 mM HEPES, 50 U and 50 ug/ml pen/strep) respectively to yield drugs at 4× the final test concentration containing 0.4% DMSO or 0.4% ethanol. The final concentration of DMSO is 0.1% for all drug dilutions. A concentration titration which brackets the apparent Ki for a test compound determined in an ICE inhibition assay is generally used for the primary compound screen.
Generally 5-6 compound dilutions are tested and the cellular component of the assay is performed in duplicate, with duplicate ELISA determinations on each cell culture supernatant.
PBMC Isolation and IL-1 Assay:
Buffy coat cells isolated from one pint human blood (yielding 40-45 ml final volume plasma plus cells) are diluted with media to 80 ml and LeukoPREP separation tubes (Becton Dickinson) are each overlaid with 10 ml of cell suspension. After 15 min centrifugation at 1500-1800×g, the plasma/media layer is aspirated and then the mononuclear cell layer is collected with a Pasteur pipette and transferred to a 15 ml conical centrifuge tube (Corning). Media is added to bring the volume to 15 ml, gently mix the cells by inversion and centrifuge at 300×g for 15 min. Resuspend the PBMC pellet in a small volume of media, count cells and adjust to 6×10^6 cells/ml.
For the cellular assay, 1.0 ml of the cell suspension is added to each well of a 24-well flat bottom tissue culture plate (Corning), 0.5 ml test compound dilution and 0.5 ml LPS solution (Sigma #L-3012; 20 ng/ml solution prepared in complete RPMI media; final LPS concentration 5 ng/ml). The 0.5 ml additions of test compound and LPS are usually sufficient to mix the contents of the wells. Three control mixtures are run per experiment, with either LPS alone, solvent vehicle control, and/or additional media to adjust the final culture volume to 2.0 ml. The cell cultures are incubated for 16-18 hr at 37° C. in the presence of 5% CO2.
At the end of the incubation period, cells are harvested and transferred to 15 ml conical centrifuge tubes. After centrifugation for 10 min at 200×g, supernatants are harvested and transferred to 1.5 ml Eppendorf tubes. It may be noted that the cell pellet may be utilized for a biochemical evaluation of pre-IL-1β and/or mature IL-1β content in cytosol extracts by western blotting or ELISA with pre-IL-1β specific antisera.
Isolation of Adherent Mononuclear Cells:
PBMC are isolated and prepared as described above. Media (1.0 ml) is first added to wells followed by 0.5 ml of the PBMC suspension. After a one hour incubation, plates are gently shaken and nonadherent cells aspirated from each well. Wells are then gently washed three times with 1.0 ml of media and final resuspended in 1.0 ml media. The enrichment for adherent cells generally yields 2.5−3.0×10^5 cells per well. The addition of test compounds, LPS, cell incubation conditions and processing of supernatants proceeds as described above.
We have used Quantikine kits (R&D Systems) for measurement of mature IL-1β. Assays are performed according to the manufacturer's directions. Mature IL-1β levels of about 1-3 ng/ml in both PBMC and adherent mononuclear cell positive controls are observed. […]

[2] = Homo sapiens, PBMC, * = values obtained upon reassay

SMILES: O=C[C@H](CC(=O)O)NC(=O)[C@@H]1CCCN2C(=O)CC[C@H](NC(=O)c3ccc4ccccc4c3O)C(=O)N12 [Compound 449]
Ki (ICE; Table 5): 0.012 µM
IC50 [1, 2]: 1.5 µM

SMILES: O=C[C@H](CC(=O)O)NC(=O)[C@@H]1CCCN2C(=O)CC[C@H](NC(=O)c3cccnc3)C(=O)N12 [Compound 454]
Ki (ICE; Table 5): 0.045 µM
IC50 [1, 2]: 2.5 µM

SMILES: O=C[C@H](CC(=O)O)NC(=O)[C@@H]1CCCN2C(=O)CC[C@H](NC(=O)c3cc4ccccc4o3)C(=O)N12 [Compound 467]
Ki (ICE; Table 5): 0.011 µM
IC50 [1, 2]: 1.9 µM

SMILES: O=C[C@H](CC(=O)O)NC(=O)[C@@H]1CCCN2C(=O)CC[C@H](NC(=O)c3ccc(CO)cc3)C(=O)N12 [Compound 479]
Ki (ICE; Table 5): 0.015 µM
IC50 [1, 2]: 0.9 µM

SMILES: O=C[C@H](CC(=O)O)NC(=O)[C@@H]1CCCN2C(=O)CC[C@H](NC(=O)c3ccc(OC(=O)c4ccccc4)cc3)C(=O)N12 [Compound 491]
Ki (ICE; Table 5): 0.005 µM
IC50 [1, 2]: 2.5 µM

SMILES: CC(C)CC(=O)N1C[C@H](NC(=O)c2ccccc2)C(=O)N(CC(=O)N[C@H](C=O)CC(=O)O)c2ccccc21 [Compound 605f, (3S)-3-[(3S)-2-Oxo-3-benzoylamino-5-(3-methylbutyryl)-2,3,4,5-tetrahydro-1H-1,5-benzodiazepin-1-acetylamino]-4-oxo-butyric acid]
Ki (ICE; Table 5): 0.475 µM
IC50 [1, 2]: 12.5 µM

SMILES: CC(=O)CC(=O)N1C[C@H](NC(=O)c2ccccc2)C(=O)N(CC(=O)N[C@H](C=O)CC(=O)O)c2ccccc21 [Compound 605g, (3S)-3-[(3S)-2-Oxo-3-benzoylamino-5-acetoacetyl-2,3,4,5-tetrahydro-1H-1,5-benzodiazepin-1-acetylamino]-4-oxo-butyric acid]
Ki (ICE; Table 5): 0.165 µM
IC50 [1, 2]: 22.5 µM

SMILES: COC(=O)C(=O)N1C[C@H](NC(=O)c2ccccc2)C(=O)N(CC(=O)N[C@H](C=O)CC(=O)O)c2ccccc21 [Compound 605h, (3S)-3-[(3S)-2-oxo-3-benzoylamino-5-methyloxalkyl-2,3,4,5-tetrahydro-1H-1,5-benzodiazepin-1-acetylamino]-4-oxo-butyric acid]
Ki (ICE; Table 5): 0.46 µM
IC50 [1, 2]: > 25 µM

SMILES: CC(=O)C(=O)N1C[C@H](NC(=O)c2ccccc2)C(=O)N(CC(=O)N[C@H](C=O)CC(=O)O)c2ccccc21 [Compound 605i, (3S)-3-[(3S)-2-Oxo-3-benzoylamino-5-acetylcarbonyl-2,3,4,5-tetrahydro-1H-1,5-benzodiazepin-1-acetylamino]-4-oxo-butyric acid]
Ki (ICE; Table 5): 0.68 µM
IC50 [1, 2]: > 20 µM

SMILES: CS(=O)(=O)N1C[C@H](NC(=O)c2ccccc2)C(=O)N(CC(=O)N[C@H](C=O)CC(=O)O)c2ccccc21 [Compound 605m, (3S)-3-[(3S)-2-Oxo-3-benzoylamino-5-methanesulfonyl-2,3,4,5-tetrahydro-1H-1,5-benzodiazepin-1-acetylamino]-4-oxo-butyric acid]
Ki (ICE; Table 5): 0.65 µM
IC50 [1, 2]: 20 µM

SMILES: O=C[C@H](CC(=O)O)NC(=O)CN1C(=O)[C@@H](NC(=O)c2ccccc2)CN(C(=O)Cc2ccncc2)c2ccccc21 [Compound 605s, (3S)-3-[(3S)-2-Oxo-3-benzoylamino-5-(4-pyridylacetyl)-2,3,4,5-tetrahydro-1H-1,5-benzodiazepin-1-acetylamino]-4-oxo-butyric acid]
Ki (ICE; Table 5): 0.15 µM
IC50 [1, 2]: 6 µM

SMILES: O=CC(CC(=O)O)NC(=O)CN1C(=O)[C@@H](NCc2ccccc2)CN(C(=O)CCc2ccccc2)c2ccccc21 (stereo partly drawn) [Compound 605v, (3S)3-[(3S)2-Oxo-3-benzylamino-5-(3-phenylpropionyl)-2,3,4,5-tetrahydro-1H-1,5-benzodiazepin-1-acetylamino]-4-oxo-butyric acid trifluoroacetic acid salt]
Ki (ICE; Table 5): 1.1 µM
IC50 [1, 2]: > 30 µM

SMILES: O=C(O)C[C@H](NC(=O)CN1C(=O)[C@@H](NC(=O)CCc2ccccc2)CN(C(=O)CCc2ccccc2)c2ccccc21)C(=O)c1nc2cc(Cl)cc(Cl)c2o1 [Compound 609a, (3S)-3-[(3S)-2-Oxo-3-(3-phenylpropionylamino)-5-(3-phenylpropionyl)-2,3,4,5-tetrahydro-1H-1,5-benzodiazepin-1-acetylamino]-4-(5,7-dichlorobenzoxazol-2-yl)-4-oxo-butyric acid]
Ki (ICE; Table 5): 0.114 µM
IC50 [1, 2]: > 30 µM

SMILES: CC(=O)N1C[C@H](NC(=O)c2ccccc2)C(=O)N(CC(=O)N[C@@H](CC(=O)O)C(=O)c2nc3cc(Cl)cc(Cl)c3o2)c2ccccc21 [Compound 609b, (3S)-3-[(3S)-2-Oxo-3-benzoylamino-5-acetyl-2,3,4,5-tetrahydro-1H-1,5-benzodiazepin-1-acetylamino]-4-(5,7-dichlorobenzoxazol-2-yl)-4-oxo-butyric acid]
Ki (ICE; Table 5): 0.027 µM
IC50 [1, 2]: > 20 µM

SMILES: CNCC(=O)N1C[C@H](NC(=O)c2cccc3ccccc23)C(=O)N(CC(=O)N[C@H](C=O)CC(=O)O)c2ccccc21 [Compound 650, (3S)-3-[(3S)-2-Oxo-3-(1-naphthoyl)amino-5-(2-methylamino)acetyl-2,3,4,5-tetrahydro-1H-1,5-benzodiazepine-1-acetylamino]-4-oxo-butyric acid]
Ki (ICE; Table 17): 0.55 µM
IC50 ([1]; Homo sapiens, PBMC, Table 17): 4 µM

Now from value to compound, other results behind:

Ki (ICE; Table 5): 0.004 µM
SMILES: COc1cccc(C(=O)N[C@H]2CCC(=O)N3CCC[C@@H](C(=O)N[C@H](C=O)CC(=O)O)N3C2=O)c1 [Compound 451]
IC50 [1, 2]: 1.8 µM

Ki (ICE; Table 5): 0.02 µM
SMILES: O=C[C@H](CC(=O)O)NC(=O)[C@@H]1CCCN2C(=O)CC[C@H](NC(=O)c3ccc(F)c(F)c3)C(=O)N12 [Compound 458]
IC50 [1, 2]: 2.9 µM

Ki (ICE; Table 5): 0.005 µM
SMILES: O=C[C@H](CC(=O)O)NC(=O)[C@@H]1CCCN2C(=O)CC[C@H](NC(=O)c3ccc(F)c(Cl)c3)C(=O)N12 [Compound 459]
IC50 [1, 2]: 1.8 µM

Ki (ICE; Table 5): 0.014 µM
SMILES: O=C[C@H](CC(=O)O)NC(=O)[C@@H]1CCCN2C(=O)CC[C@H](NC(=O)c3ccc(F)cc3)C(=O)N12 [Compound 463]
IC50 ([1]; * = values obtained upon reassay): 2.8 µM
IC50 [1, 2]: 2.4 µM

Ki (ICE; Table 5): 0.0025 µM
SMILES: O=C[C@H](CC(=O)O)NC(=O)[C@@H]1CCCN2C(=O)CC[C@H](NC(=O)c3ccc(Cl)c(Cl)c3)C(=O)N12 [Compound 464]
IC50 [1, 2]: 1 µM

Ki (ICE; Table 5): 0.025 µM
SMILES: CC(=O)Nc1ccc(C(=O)N[C@H]2CCC(=O)N3CCC[C@@H](C(=O)N[C@H](C=O)CC(=O)O)N3C2=O)cc1NC(C)=O [Compound 480]
IC50 [1, 2]: 2.3 µM

Ki (ICE; Table 5): 0.0043 µM
SMILES: COC(=O)Nc1ccc(C(=O)N[C@H]2CCC(=O)N3CCC[C@@H](C(=O)N[C@H](C=O)CC(=O)O)N3C2=O)cc1 [Compound 490]
IC50 [1, 2]: 1 µM
